Source: ChEMBL document CHEMBL3351221, “Synthetic derivatives of aromatic abietane diterpenoids and their biological activities” (Eur J Med Chem, 2014)
Converted amounts (≈) assume the structure as drawn.

Columns and labels:
Staphylococcus aureus [1] = assay: Antimicrobial activity against methicillin-resistant Staphylococcus aureus; type: functional
Enterococcus = assay: Antimicrobial activity against Vancomycin-resistant Enterococcus; type: functional
Rattus norvegicus [2] = assay: Antiulcer activity in rat assessed as inhibition of pepsin activity at 100 mg/kg; type: functional
Fusarium graminearum = assay: Antimicrobial activity against Fusarium graminearum assessed as inhibition of microbial growth at 50 ug/ml; type: functional
Fusarium oxysporum = assay: Antimicrobial activity against Fusarium oxysporum assessed as inhibition of microbial growth at 50 ug/ml; type: functional
[3] = test system: Botryosphaeria berengeriana; assay: Antimicrobial activity against Physalospora pyricola assessed as inhibition of microbial growth at 50 ug/ml; type: functional
Staphylococcus aureus [4] = assay: Antimicrobial activity against Staphylococcus aureus; type: functional
Bacillus subtilis = assay: Antimicrobial activity against Bacillus subtilis; type: functional
Escherichia coli = assay: Antimicrobial activity against Escherichia coli; type: functional
Pseudomonas fluorescens = assay: Antimicrobial activity against Pseudomonas fluorescens; type: functional
SMMC-7721 [5] = assay: Cytotoxicity against human SMMC7721 cells; type: functional, cell-based
HepG2 = assay: Cytotoxicity against human HepG2 cells; type: functional, cell-based
[6] = Cytotoxicity against human HL60 cells; type: functional, cell-based; details: HL-60
A549 = assay: Cytotoxicity against human A549 cells; type: functional, cell-based
[7] = Cytotoxicity against human AZ-521 cells; type: functional, cell-based
[8] = Cytotoxicity against human SKBR3 cells; type: functional, cell-based; details: SK-BR-3
[9] = Cytotoxicity against human SKMES1 cells; type: functional, cell-based; details: SK-MES-1
SMMC-7721 [10] = assay: Cytotoxicity against human SMMC7721 cells assessed as growth inhibition at 0.1 uM; type: functional
SMMC-7721 [11] = assay: Cytotoxicity against human SMMC7721 cells assessed as growth inhibition at 0.1 uM after 72 hrs; type: functional; details: SMMC-7721, 72 h
[12] = Cytotoxicity against human Hey-1B cells; type: functional, cell-based
[13] = Cytotoxicity against human PC3 cells; type: functional, cell-based; details: PC-3
Androgen receptor = Androgen receptor (Homo sapiens, UniProt P10275); assay: Binding affinity to androgen receptor (unknown origin)
Androgen receptor, sequence (P10275 whole entry): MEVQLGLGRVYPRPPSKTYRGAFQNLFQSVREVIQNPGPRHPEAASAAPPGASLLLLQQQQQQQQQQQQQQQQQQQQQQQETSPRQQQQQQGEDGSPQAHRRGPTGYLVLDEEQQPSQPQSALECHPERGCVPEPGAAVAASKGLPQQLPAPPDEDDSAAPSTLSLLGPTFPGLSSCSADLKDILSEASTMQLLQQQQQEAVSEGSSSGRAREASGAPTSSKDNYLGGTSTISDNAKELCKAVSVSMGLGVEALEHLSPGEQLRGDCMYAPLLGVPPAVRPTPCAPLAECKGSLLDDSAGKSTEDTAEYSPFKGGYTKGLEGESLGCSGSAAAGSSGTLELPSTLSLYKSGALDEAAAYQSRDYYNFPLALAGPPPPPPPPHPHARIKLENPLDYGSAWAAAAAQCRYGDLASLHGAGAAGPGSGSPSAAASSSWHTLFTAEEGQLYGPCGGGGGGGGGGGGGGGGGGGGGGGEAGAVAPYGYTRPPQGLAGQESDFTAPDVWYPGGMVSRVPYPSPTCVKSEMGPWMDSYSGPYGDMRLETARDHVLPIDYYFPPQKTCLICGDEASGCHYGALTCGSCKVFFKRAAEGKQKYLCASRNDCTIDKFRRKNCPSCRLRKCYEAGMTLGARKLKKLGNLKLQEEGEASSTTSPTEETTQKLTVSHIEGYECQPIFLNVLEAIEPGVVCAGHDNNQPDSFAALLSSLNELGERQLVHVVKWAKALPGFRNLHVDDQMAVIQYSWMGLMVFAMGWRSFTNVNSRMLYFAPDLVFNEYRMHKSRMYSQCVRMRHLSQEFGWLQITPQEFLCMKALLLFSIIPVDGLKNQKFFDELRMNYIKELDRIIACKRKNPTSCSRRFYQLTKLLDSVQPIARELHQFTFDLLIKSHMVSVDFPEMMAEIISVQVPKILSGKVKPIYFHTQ

C6 = assay: Cytotoxicity against rat C6 cells; type: functional, cell-based
MCF7 = assay: Cytotoxicity against human MCF7 cells; type: functional, cell-based
EJ = assay: Cytotoxicity against human EJ cells; type: functional, cell-based; details: pooled result: one value given for 4 cell lines, strains, targets or settings
[14] = target: Fibroblast growth factor receptor 1 (Homo sapiens, UniProt P11362); assay: Inhibition of FGFR1 (unknown origin)
Fibroblast growth factor receptor 1, sequence (P11362 whole entry): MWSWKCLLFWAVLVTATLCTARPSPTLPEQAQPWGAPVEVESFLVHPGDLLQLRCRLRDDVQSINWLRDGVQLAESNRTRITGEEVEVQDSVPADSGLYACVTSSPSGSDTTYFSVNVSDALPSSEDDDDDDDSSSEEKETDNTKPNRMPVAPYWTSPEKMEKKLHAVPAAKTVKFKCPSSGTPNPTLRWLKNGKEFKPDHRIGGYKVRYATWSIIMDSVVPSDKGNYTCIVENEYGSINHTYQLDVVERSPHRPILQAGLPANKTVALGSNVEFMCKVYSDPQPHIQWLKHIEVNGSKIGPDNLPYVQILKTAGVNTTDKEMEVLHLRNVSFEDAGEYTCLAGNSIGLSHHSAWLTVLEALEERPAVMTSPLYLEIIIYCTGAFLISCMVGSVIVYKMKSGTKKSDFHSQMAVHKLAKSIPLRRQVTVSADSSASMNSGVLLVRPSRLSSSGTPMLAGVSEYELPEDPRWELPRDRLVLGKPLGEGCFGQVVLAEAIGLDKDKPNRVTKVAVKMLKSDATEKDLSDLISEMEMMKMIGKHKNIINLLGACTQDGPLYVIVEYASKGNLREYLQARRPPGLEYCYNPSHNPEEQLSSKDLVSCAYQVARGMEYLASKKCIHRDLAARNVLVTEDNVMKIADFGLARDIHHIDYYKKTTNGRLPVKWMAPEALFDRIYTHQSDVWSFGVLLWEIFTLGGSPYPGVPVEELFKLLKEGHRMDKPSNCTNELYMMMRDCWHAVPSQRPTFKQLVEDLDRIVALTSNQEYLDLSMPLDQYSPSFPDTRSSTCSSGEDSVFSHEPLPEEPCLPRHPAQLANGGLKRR

[15] = Antioxidant activity assessed as DPPH radical scavenging activity; type: physicochemical
superoxide anion radical = assay: Antioxidant activity assessed as superoxide anion radical scavenging activity relative to untreated control
Leishmania infantum = assay: Antimicrobial activity against Leishmania infantum; type: functional, organism-based
Leishmania braziliensis = assay: Antimicrobial activity against Leishmania braziliensis; type: functional, organism-based
Mus musculus [16] = assay: Gastroprotective activity in mouse assessed as reduction in HCl/EtOH-induced gastric lesions at 10 mg/kg; type: functional; details: Stomach
Rattus norvegicus [17] = assay: Antiulcer activity in rat assessed as inhibition of secretion at 30 mg/kg, ip; type: functional; details: route intraperitoneal
Mus musculus [18] = assay: Gastroprotective activity in mouse assessed as reduction in HCl/EtOH-induced gastric lesions at 100 mg/kg; type: functional; details: Stomach

In the case of CC(C)c1cc2c(cc1O)[C@@]1(C)CCCC(C)(C)[C@@H]1[C@H](O)C2, the MIC (Staphylococcus aureus [1]) is reported as 4 µg/mL (≈ 13.2 µM) and the MIC (Enterococcus) is reported as 4 µg/mL (≈ 13.2 µM).

In the case of CC(C)c1cc2c(cc1S(=O)(=O)O)[C@@]1(C)CCC[C@@](C)(C(=O)O)[C@@H]1CC2, the inhibition in vivo at 100 mg/kg (Rattus norvegicus [2]; Rattus norvegicus) is reported as 92%.

In the case of CC(C)c1cc2c(cc1S(=O)(=O)[O-])[C@@]1(C)CCC[C@@](C)(C(=O)[O-])[C@@H]1CC2.[Na+].[Na+], the “inhibition (INH)” value (Rattus norvegicus [2]) is reported as 92%.

Work on CC(C)c1ccc2c(c1)CC[C@H]1[C@](C)(c3nnc4s/c(=C\c5ccc(O)cc5)c(=O)n34)CCC[C@]21C yielded an inhibition at 50 µg/mL (Fusarium graminearum) of 70.9%.

Compound CC(C)c1ccc2c(c1)CC[C@H]1[C@](C)(c3nnc4s/c(=C\c5ccccc5)c(=O)n34)CCC[C@]21C has an inhibition at 50 µg/mL (Fusarium oxysporum) of 51.9%.

With COc1ccc(/C=c2\sc3nnc([C@]4(C)CCC[C@]5(C)c6ccc(C(C)C)cc6CC[C@@H]45)n3c2=O)cc1 the inhibition at 50 µg/mL [3] was 56.8%.

CC(C)c1ccc2c(c1)CC[C@H]1[C@](C)(C(=O)N/N=C/c3ccc([N+](=O)[O-])o3)CCC[C@]21C gave an MIC (Staphylococcus aureus [4]) of 1.9 µg/mL (≈ 4.34 µM), an MIC (Bacillus subtilis) of 1.9 µg/mL (≈ 4.34 µM) and an MIC (Escherichia coli) of 3.9 µg/mL (≈ 8.91 µM). The MIC (Pseudomonas fluorescens) was 3.9 µg/mL (≈ 8.91 µM).

Compound CC(C)c1ccc2c(c1)CC[C@H]1[C@](C)(C(=O)N/N=C/c3ccc(Cl)c([N+](=O)[O-])c3)CCC[C@]21C has an MIC (Escherichia coli) of 3.9 µg/mL (≈ 8.09 µM) and an MIC (Pseudomonas fluorescens) of 3.9 µg/mL (≈ 8.09 µM).

Work on CC(C)c1ccc2c(c1)CC[C@H]1[C@](C)(C(=O)N/N=C/c3cc(Cl)ccc3O)CCC[C@]21C yielded an MIC (Escherichia coli) of 3.9 µg/mL (≈ 8.61 µM) and an MIC (Pseudomonas fluorescens) of 3.9 µg/mL (≈ 8.61 µM).

Work on CC(C)c1ccc2c(c1)CC[C@H]1[C@](C)(NC(N)=O)CCC[C@]21C yielded an IC50 (SMMC-7721 [5]) of 8.8 µM and an IC50 (HepG2) of 1.21 µg/mL (≈ 3.85 µM).

With COC(=O)[C@H](Cc1ccc(O)cc1)NC(=O)[C@]1(C)CCC[C@]2(C)c3ccc(C(C)C)cc3CC[C@@H]12 the IC50 [6] was 2.3 µM, the IC50 (A549) was 7.1 µM and the IC50 [7] was 3.9 µM. For the same compound, the IC50 [8] was 8.1 µM.

For CC(C)c1ccc2c(c1)CC[C@H]1[C@](C)(COC(=O)CCc3cn(-c4ccccc4)nn3)CCC[C@]21C, the IC50 [9] was 6.1 µM.

CC(C)c1ccc2c(c1)CC[C@H]1[C@](C)(CNC(c3ccc(F)cc3)P(=O)(Oc3ccccc3)Oc3ccccc3)CCC[C@]21C (some centres undefined) gave an inhibition at 0.1 µM (SMMC-7721 [10]) of 75%.

For CC(C)c1ccc2c(c1)CC[C@H]1[C@](C)(CNC(c3ccc(C(F)(F)F)cc3)P(=O)(Oc3ccccc3)Oc3ccccc3)CCC[C@]21C (some centres undefined), the inhibition at 0.1 µM (SMMC-7721 [10]) was 79%.

With CCOP(=O)(OCC)C(NC[C@]1(C)CCC[C@]2(C)c3ccc(C(C)C)cc3CC[C@@H]12)c1ccc([N+](=O)[O-])cc1O (some centres undefined) the inhibition at 0.1 µM (SMMC-7721 [11]) was 99%.

In the case of CC(C)c1cc2c(cc1[N+](=O)[O-])[C@@]1(C)CCC[C@@](C)(CNC(=O)c3ccccc3)[C@@H]1CC2=O, the IC50 (HepG2) is reported as 67.9 µg/mL (≈ 151 µM).

CC(C)c1ccc2c(c1)C(=O)C[C@H]1[C@](C)(CNC(=O)c3ccccc3)CCC[C@]21C gave an IC50 [12] of 11.3 µg/mL (≈ 28 µM), an IC50 [13] of 5.7 µg/mL and an IC50 (Androgen receptor) of 83.8 µM.

Compound CC(C)c1cc2c(cc1[N+](=O)[O-])[C@@]1(C)CCC[C@@](C)(CNC(=O)c3ccc([N+](=O)[O-])cc3)[C@@H]1CC2 has an IC50 [12] of 11.3 µg/mL (≈ 23.6 µM) and an IC50 [13] of 5.7 µg/mL.

Compound COc1ccc(/C=N/C[C@]2(C)CCC[C@]3(C)c4ccc(C(C)C)cc4CC[C@@H]23)cc1 has an IC50 (SMMC-7721 [5]) of 6.65 µM, an IC50 (A549) of 0.75 µM and an IC50 (C6) of 0.81 µM. For the same compound, the IC50 (MCF7) was 10.7 µM.

With COc1ccc(/C=N/C[C@]2(C)CCC[C@]3(C)c4ccc(C(C)C)cc4CC[C@@H]23)c(O)c1 the IC50 (SMMC-7721 [5]) was 6.65 µM, the IC50 (A549) was 0.75 µM and the IC50 (C6) was 0.81 µM. For the same compound, the IC50 (MCF7) was 10.7 µM.

In the case of CC(C)c1ccc2c(c1)CC[C@H]1[C@](C)(C/N=C/c3ccc(C(F)(F)F)cc3)CCC[C@]21C, the IC50 (SMMC-7721 [5]) is reported as 6.65 µM, the IC50 (A549) is reported as 0.75 µM and the IC50 (C6) is reported as 0.81 µM. It also gave an IC50 (MCF7) of 10.7 µM.

For CC(C)c1ccc2c(c1)CC[C@H]1[C@](C)(C/N=C/c3cccc(F)c3)CCC[C@]21C, the IC50 (SMMC-7721 [5]) was 6.65 µM, the IC50 (A549) was 0.75 µM and the IC50 (C6) was 0.81 µM. The IC50 (MCF7) was 10.7 µM.

With C=CC1CN2CCC1CC2C(NC(=S)NC[C@]1(C)CCC[C@]2(C)c3ccc(C(C)C)cc3CC[C@@H]12)c1ccnc2ccc(OC)cc12 (some centres undefined) the IC50 [13] was 2.07 µM and the IC50 (EJ) was 2.07 µM.

In the case of CC(C)c1ccc2c(c1)CC[C@H]1[C@](C)(C/N=C/c3c(O)ccc4ccccc34)CCC[C@]21C, the IC50 [14] is reported as 1.2 µM.

For CC(C)c1ccc2c(c1)C(=O)C[C@H]1[C@](C)(CNC(=O)c3cc(O)c(O)c(O)c3)CCC[C@]21C, the IC50 [15] was 2 µg/mL (≈ 4.43 µM) and the “inhibition (INH)” value (superoxide anion radical) was 38.18%.

For CC(C)c1cc2c(cc1O)[C@@]1(C)CCCC(C)(C)[C@@H]1C(=O)C2, the MIC (Staphylococcus aureus [1]) was 4 µg/mL (≈ 13.3 µM) and the MIC (Enterococcus) was 4 µg/mL (≈ 13.3 µM).

In the case of COC(=O)[C@@]1(C)CCC[C@]2(C)c3cc(O)c(C(C)(C)O)cc3CC[C@@H]12, the IC50 (Leishmania infantum) is reported as 14 µM and the IC50 (Leishmania braziliensis) is reported as 14 µM.

Compound COC(=O)[C@@]1(C)CCC[C@]2(C)c3cc(O)c(C(C)C)cc3CC[C@@H]12 has an IC50 (Leishmania infantum) of 14 µM and an IC50 (Leishmania braziliensis) of 14 µM.

CC(C)c1cc2c(cc1O)[C@@]1(C)CCC[C@](C)(CO)[C@@H]1CC2 showed an IC50 (Leishmania infantum) of 14 µM and an IC50 (Leishmania braziliensis) of 14 µM.

For COC(=O)[C@]12CCCC(C)(C)[C@@H]1CCc1cc(C(C)C)c(OC(=O)c3ccccc3)c(OC(=O)c3ccccc3)c12, the inhibition in vivo at 10 mg/kg (Mus musculus [16]) was 73%.

CCCOC(=O)[C@]12CCCC(C)(C)[C@@H]1CCc1cc(C(C)C)c(OC)c(OC(=O)CCC)c12 gave an inhibition in vivo at 10 mg/kg (Mus musculus [16]) of 73%.

For COC(=O)[C@]12CCCC(C)(C)[C@@H]1CCc1cc(C(C)C)c(OC(=O)Cc3cc4ccccc4[nH]3)c(OC(=O)Cc3cc4ccccc4[nH]3)c12, the inhibition in vivo at 10 mg/kg (Mus musculus [16]) was 73%.

NCC[C@H](O)C(=O)N[C@@H]1C[C@H](N)[C@@H](O[C@H]2O[C@H](CN)[C@@H](O)[C@H](O)[C@H]2O)[C@H](O)[C@H]1O[C@H]1O[C@H](CO)[C@@H](O)[C@H](N)[C@H]1O [AMIKACIN] showed an MIC (Staphylococcus aureus [4]) of 0.9 µg/mL (≈ 1.54 µM) and an MIC (Bacillus subtilis) of 0.9 µg/mL (≈ 1.54 µM).

O=C1O[C@H]([C@@H](O)CO)C(O)=C1O [ASCORBIC ACID] gave an IC50 [15] of 236 µg/mL (≈ 1340 µM).

For CC(C)c1ccc2c(c1)CC[C@H]1[C@](C)(C(=O)O)CCC[C@]21C [DEHYDROABIETIC ACID], the inhibition in vivo at 30 mg/kg (Rattus norvegicus [17]) was 22% and the inhibition in vivo at 100 mg/kg (Mus musculus [18]) was 59%.

CC(C)c1cc2c(c(O)c1O)[C@@]1(C)CCCC(C)(C)[C@@H]1CC2=O [DEMETHYLCRYPTOJAPONOL] showed an MIC (Staphylococcus aureus [1]) of 4 µg/mL (≈ 12.6 µM) and an MIC (Enterococcus) of 4 µg/mL (≈ 12.6 µM).

For COc1cc([C@@H]2c3cc4c(cc3[C@@H](O[C@@H]3O[C@@H]5CO[C@@H](C)O[C@H]5[C@H](O)[C@H]3O)[C@H]3COC(=O)[C@H]23)OCO4)cc(OC)c1O [ETOPOSIDE], the IC50 [9] was 1.83 µM.

Compound Cc1c(OCC(F)(F)F)ccnc1C[S+]([O-])c1nc2ccccc2[nH]1 (centres undefined) [LANSOPRAZOLE] has an inhibition in vivo at 10 mg/kg (Mus musculus [16]) of 64%.

Work on CC(C)c1cc2c(c(O)c1O)[C@@]1(C)CCCC(C)(C)C1=CC2=O [SALVINOLONE] yielded an MIC (Staphylococcus aureus [1]) of 4 µg/mL (≈ 12.7 µM) and an MIC (Enterococcus) of 4 µg/mL (≈ 12.7 µM).
